Source: patent US5242684A, “Antimicrobial, low toxicity, non-irritating composition comprising a blend of bis-quaternary ammonium compounds coprecipitated with a copolymer of vinylpyrrolidone and an acrylamido or vinyl quaternary ammonium monomer” (ISP Investments Inc., priority 1991, dated 1993)

Tests used:
E.Coli = test: Minimum Inhibitory Concentration (MIC) against E.Coli; type: cell-based; conditions: Gram negative, coprecipitates at 50:50 wt. ratio with GAFQUAT HS-100, unit assumed
Description: The antimicrobial activity of the products herein are represented by their Minimum Inhibitory Concentration (MIC) against E.Coli, a Gram negative microorganism. Their effect on skin is indicated by an Irritation Index. These properties are presented in the Table below for the individual compounds in blend D and the invention composition of several D, H and L blend compositions coprecipitated in a 50:50 wt. ratio with GAFQUAT® HS-100.

LD50 toxicity (on rats) = conditions: rat, in vivo

## CCCCCCCCCCCCCC[N+](C)(C)CCOCCOCC[N+](C)(C)CCCCCCCCCCCC [B compound in D blend]
E.Coli
  MIC: 50 µg/mL
LD50 toxicity (on rats)
  LD50: 700 mg/kg

## CCCCCCCCCCCC[N+](C)(C)CCOCCOCC[N+](C)(C)CCCCCCCCCCCC [A compound in D blend]
E.Coli
  MIC: 100 µg/mL
LD50 toxicity (on rats)
  LD50: 300 mg/kg

## CCCCCCCCCCCCCC[N+](C)(C)CCOCCOCC[N+](C)(C)CCCCCCCCCCCCCC [C compound in D blend]
E.Coli
  MIC: 125 µg/mL
LD50 toxicity (on rats)
  LD50: 950 mg/kg
